Reference: patent publication US5516783A, “4-(1H-2-methylimidazo[4,5-c]pyridinylmethyl)phenylsulphonamide derivatives as antagonist of PAF” (British Biotech Pharmaceuticals Limited, priority 1992, dated 1996)

Each compound was assayed against T1, platelet activating factor (PAF) receptor (human platelet plasma membrane) (Homo sapiens, UniProt P25105) (assay: inhibition of [^3 H]-PAF receptor binding to human platelet plasma membrane). Details: [^3 H]-PAF 0.5 nM, 0° C., 1 hour, pH 7.0.
T1 construct: Platelet concentrates were obtained from a hospital blood bank; from tissue; host or cells: human platelets (hospital blood bank concentrates), lysed plasma membrane preparation
T1 sequence (P25105 whole entry): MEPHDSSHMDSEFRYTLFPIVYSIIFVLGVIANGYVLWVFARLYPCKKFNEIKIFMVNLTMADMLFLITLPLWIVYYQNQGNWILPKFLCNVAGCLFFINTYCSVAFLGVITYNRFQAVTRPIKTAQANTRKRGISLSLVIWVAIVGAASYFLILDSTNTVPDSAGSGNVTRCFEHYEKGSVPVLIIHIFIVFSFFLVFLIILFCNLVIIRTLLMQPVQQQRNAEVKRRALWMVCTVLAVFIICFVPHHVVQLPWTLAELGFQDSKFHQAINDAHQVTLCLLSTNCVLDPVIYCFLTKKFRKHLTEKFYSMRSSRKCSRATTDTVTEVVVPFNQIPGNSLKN
Experimental: The inhibition of [^3 H]-PAF binding to human platelet plasma membrane by compounds of general formula I was determined by isotopic labelling and filtration techniques. Platelet concentrates were obtained from a hospital blood bank. These platelet concentrates (500-2500 ml.) were centrifuged at 800 rpm for 10 minutes in a SORVALL RC3B centrifuge to remove the red blood cells present. (The word SORVALL is a trade mark.) The supernatant was subsequently centrifuged at 3,000 rpm in a SORVALL RC3B centrifuge to pellet the platelets present. The platelet rich pellets were resuspended in a minimum volume of buffer (150 mM NaCl, 10 mM Tris, 2 mM EDTA, pH 7.5) and layered onto Ficoll-Paque gradients, 9 ml platelet concentrate to 2 ml Ficoll, and centrifuged at 1,900 rpm for 15 minutes in a SORVALL RT6000 centrifuge. This step removes the residual red blood cells and other nonspecific material such as lymphocytes from the preparation. The platelets which form a band between the plasma and the Ficoll were removed, resuspended in the above buffer and centrifuged at 3,000 rpm for 10 minutes in a SORVALL RT6000 centrifuge. The pelleted platelets were resuspended in buffer (10 mM Tris, 5 mM MgCl2, 2 mM EDTA, pH 7.0), snap freezed in liquid N2 and allowed to thaw slowly at room temperature in order to lyse the platelets. The latter step was repeated at least 3 times to ensure proper lysis. The lysed platelets were centrifuged at 3,000 rpm for 10 minutes in a SORVALL RT6000 centrifuge and resuspended in buffer. The latter step was repeated twice in order to remove any cytoplasmic proteins which may hydrolyse the platelet activating factor (PAF) receptor. The prepared platelet membranes may be stored at -70° C. After thawing the prepared membranes were centrifuged in a SORVALL RT6000 at 3,000 rpm for 10 minutes and resuspended in assay buffer.
The assay was conducted by preparing a series of Tris-buffered solutions of the selected antagonist of predetermined concentrations. Each of these solutions contained [^3 H]-PAF (0.5 nM; 1-O-[^3 H]octadecyl-2-acetyl-sn-glycero-3-phosphoryl choline with a specific activity of 132 Ci/mmol), unlabelled PAF (1000 nM), a known amount of the test antagonist, and a sufficient amount of Tris-buffer solution (10 mM Tris, 5 mM MgCl2, pH 7.0, 0.25% BSA) to make the final volume 1 ml. Incubation was initiated by the addition of 100 μg of the isolated membrane fraction to each of the above solutions at 0° C. Two control samples, one (C1 ) which contained all the ingredients described above except the antagonist and the other (C2) contains C1 plus a 1000-fold excess of unlabelled PAF, were also prepared and incubated simultaneously with the test samples.
After 1 hour incubation, each solution was filtered rapidly under vacuo through a WHATMAN GF/C glass fibre filter in order to separate unbound PAF from bound PAF. (The word WHATMAN is a trade mark.) The residue in each case was rapidly washed 4 times with 5 ml cold (4° C.) Tris-buffer solution. Each washed residue was dried under vacuum on a sampling manifold and placed into vials containing 20 ml of OPTIPHASE MP scintillation fluid and the radioactivity counted in a liquid scintillation counter. (The word OPTIPHASE is a trade mark.) Defining the counts for total binding with antagonist from a test sample as "TBA"; the counts for total binding from the control sample C1 as "TB"; and the counts for nonspecific binding from the control sample C2 as "NSB", the percent inhibition of each test antagonist can be determined by the following equation:
Inhibition=[(TB-TBA)/SB]×100
where the specific binding SB=TB-NSB
Table 1 lists results from this assay for inhibition of [^3 H]-PAF receptor binding for illustrative examples of the compounds of this invention. […]

**Q.** Which IC50 does the source give for `Cc1nc2cnccc2n1Cc1ccc(S(=O)(=O)N(C)[C@H](CO)CC(C)C)cc1` [Example 1, N-Methyl-N-4-(1H-2-methylimidazo[4,5-c]pyridinylmethyl)phenylsulphonyl-L-leucinol] here?
**A.** The IC50 was 7 nM.

**Q.** For `CCCCCCCCCCCCCCCCCC(=O)OC[C@H](CC(C)C)N(C)S(=O)(=O)c1ccc(Cn2c(C)nc3cnccc32)cc1` [Example 44, O-Octadecanoyl-N-methyl-N-4-(1H-2-methylimidazo[4,5-c]pyridinylmethyl)phenylsulphonyl-L-leucinol], which IC50 is on record?
**A.** The IC50 was 1 nM.

**Q.** Which IC50 does the source give for `CCC(=O)OC[C@H](CC(C)C)N(C)S(=O)(=O)c1ccc(Cn2c(C)nc3cnccc32)cc1` [Example 45, O-Propanoyl-N-methyl-N-4-(1H-2-methylimidazo[4,5-c]pyridinylmethyl)phenylsulphonyl-L-leucinol] here?
**A.** The IC50 was 0.5 nM.

**Q.** With `CCOC(=O)C(=O)OC[C@H](CC(C)C)N(C)S(=O)(=O)c1ccc(Cn2c(C)nc3cnccc32)cc1` [Example 47, O-Ethyloxaloyl-N-methyl-N-4-(1H-2-methylimidazo[4,5-c]pyridinylmethyl)phenylsulphonyl-L-leucinol] as the compound, how does the IC50 read?
**A.** The IC50 was 2 nM.

**Q.** Which IC50 does the source give for `CC(=O)Oc1ccccc1C(=O)OC[C@H](CC(C)C)N(C)S(=O)(=O)c1ccc(Cn2c(C)nc3cnccc32)cc1` [Example 49, O-2-Acetoxybenzoyl-N-methyl-N-4-(1H-2-methylimidazo[4,5-c]pyridinylmethyl)phenylsulphonyl-L-leucinol] here?
**A.** Its IC50 is 2 nM.

**Q.** `CC1=C(/C=C/C(C)=C/C=C/C(C)=C/C(=O)OC[C@H](CC(C)C)N(C)S(=O)(=O)c2ccc(Cn3c(C)nc4cnccc43)cc2)C(C)(C)CCC1` [Example 79, O-Retinoyl-N-methyl-N-4-(1H-2-methylimidazo[4,5-c]pyridinylmethyl)phenylsulphonyl-L-leucinol] was tested. Which IC50 did it give?
**A.** The IC50 was 4 nM.

**Q.** Which IC50 does the source give for `CCCCCCCCCCCCCCCCCCNC(=O)OC[C@H](CC(C)C)N(C)S(=O)(=O)c1ccc(Cn2c(C)nc3cnccc32)cc1` [Example 109, O-Octadecylaminocarbonyl-N-methyl-N-4-(1H-2-methylimidazo[4,5-c]pyridinylmethyl)phenylsulphonyl-L-leucinol] here?
**A.** The IC50 was 3 nM.

**Q.** `Cc1noc([C@H](CC(C)C)N(C)S(=O)(=O)c2ccc(Cn3c(C)nc4cnccc43)cc2)n1` [Example 155, N-Methyl-N-4-(1H-2-methylimidazo[4,5-c]pyridinylmethyl)phenylsulphonyl-1-(3-methyl-1,2,4-oxadiazol-5-yl)-3-methylbutylamine] was tested. Which IC50 did it give?
**A.** The IC50 was 2 nM.

These compounds were tested on PAF-induced hypotension (assay: reversal of hypotension caused by an infusion of PAF in rats). Details: iv; i.v. bolus; PAF 100 ng/kg/min infused i.v.; anaesthetised rat; read-out: inhibition of PAF-induced hypotension in the rat, ED50 (dose to cause a 50% reversal of the hypotensive PAF response).
Format: in vivo, Male Sprague-Dawley rats
Experimental: Male Sprague-Dawley rats (300-350 g) were anaesthetised with a mixture of sodium pentobarbitone, 22.5 mg/kg and thiopental 62.5 mg/kg. Through a midline incision in the neck, the trachea was cannulated and the animals breathed spontaneously. A carotid artery was cannulated for the measurement of blood pressure and this signal was used to trigger a rate meter to measure heart rate. Both jugular veins were cannulated: one for the infusion of PAF and the other for the bolus administration of test compounds.
PAF, 100 ng/kg/min was infused i.v. until a sustained fall in mean blood pressure of 50 mmHg was achieved. […] The peak of this reversal was measured and the dose to cause a 50% reversal of the hypotensive PAF response (ED50) calculated by straight line interpolation and the results are presented in Table 2.

**Q.** How did the ED50 turn out when `CN(C(=O)c1ccc(Cn2cnc3cnccc32)cc1)C1CCCCC1` [Comparative Example, N-Cyclohexyl-N-methyl-4-(1H-imidazo[4,5-c]pyridinylmethyl)benzamide, reference compound] was run?
**A.** Its ED50 is 150 µg/kg.

**Q.** `CCCCCCCCCCCCCCCCCC(=O)OC[C@H](CC(C)C)N(C)S(=O)(=O)c1ccc(Cn2c(C)nc3cnccc32)cc1` [Example 44, O-Octadecanoyl-N-methyl-N-4-(1H-2-methylimidazo[4,5-c]pyridinylmethyl)phenylsulphonyl-L-leucinol] was tested. Which ED50 did it give?
**A.** The ED50 was 4.6 µg/kg.

**Q.** Which ED50 does the source give for `CC(=O)Oc1ccccc1C(=O)OC[C@H](CC(C)C)N(C)S(=O)(=O)c1ccc(Cn2c(C)nc3cnccc32)cc1` [Example 49, O-2-Acetoxybenzoyl-N-methyl-N-4-(1H-2-methylimidazo[4,5-c]pyridinylmethyl)phenylsulphonyl-L-leucinol] here?
**A.** Its ED50 is 2.2 µg/kg.

**Q.** How did the ED50 turn out when `COc1ccc(SCC(=O)OC[C@H](CC(C)C)N(C)S(=O)(=O)c2ccc(Cn3c(C)nc4cnccc43)cc2)cc1OC` [Example 78, O-2-(3,4-Dimethoxyphenylmercapto)ethanoyl-N-methyl-N-4-(1H-2-methylimidazo[4,5-c]pyridinylmethyl)phenylsulphonyl-L-leucinol] was run?
**A.** Its ED50 is 5.8 µg/kg.

**Q.** For `Cc1nc2cnccc2n1Cc1ccc(S(=O)(=O)N(C)[C@H](COC(=O)NCc2ccccn2)CC(C)C)cc1` [Example 108, O-Pyridin-2-ylmethylaminocarbonyl-N-methyl-N-4-(1H-2-methylimidazo[4,5-c]pyridinylmethyl)phenylsulphonyl-L-leucinol], which ED50 is on record?
**A.** The ED50 was 6.6 µg/kg.

**Q.** With `CCc1noc([C@H](CC(C)C)N(C)S(=O)(=O)c2ccc(Cn3c(C)nc4cnccc43)cc2)n1` [Example 156, N-Methyl-N-4-(1H-2-methylimidazo[4,5-c]pyridinylmethyl)phenylsulphonyl-1-(3-ethyl-1,2,4-oxadiazol-5-yl)-3-methylbutylamine] as the compound, how does the ED50 read?
**A.** Its ED50 is 0.6 µg/kg.

What follows are compounds tested on platelet activating factor (assay: antagonism of platelet activating factor (statement in words)). Details: not given.

**Q.** Which “antagonism of platelet activating factor (in words)” value does the source give for `Cc1nc2ccncc2n1Cc1ccc(S(=O)(=O)N(C)Cc2cccs2)cc1` [N-methyl-N-4-(3 H-2-methylimidazo[4,5-c]pyridinylmethyl)phenylsulphonyl-2-thienylmethylamine] here?
**A.** Its value is “are antagonists of platelet activating factor”.

**Q.** How did the “antagonism of platelet activating factor (in words)” value turn out when `Cc1nc2ccn(Cc3ccc(S(=O)(=O)N(C)Cc4cccs4)cc3)cc-2n1` [N-methyl-N-4-(5H-2-methylimidazo[4,5-c]pyridinylmethyl)phenylsulphonyl-2-thienylmethylamine] was run?
**A.** The value was “are antagonists of platelet activating factor”.
